Assay results from patent US10472341B2, “Bicyclic tetrahydrothiazepine derivatives useful for the treatment of neoplastic and/or infectious diseases” (APEIRON BIOLOGICS AG, priority 2015, dated 2019).
pEC50: −log10 of the molar value. Like-named read-outs stand apart in the source and are kept apart here.

How the values were obtained:
[1] = tested on: CD4 T cells, CD8 T cells and NK cells of B16-F10-OVA tumor bearing mice; test: Immune modulation of B16-F10-OVA tumor bearing mice: activation markers in tumor draining lymph nodes (flow cytometry); format: in vivo, mouse; conditions: day 15
Method: (§1) • Single cell suspension of splenocytes was prepared from the spleen by rinsing cells through a sterile 70 μm filter with PBS • Cells were collected by centrifugation in an 15 ml tube, the cell pellet was resuspended in 1 ml of Erylyse buffer and incubated at room temperature for 5 minutes, tubes were filled up with PBS and cells were washed twice • Cells were counted and resuspended in the desired buffer volume for MACS-enrichment or flow cytometric analysis Isolation of CD4 T Cells from OT-II Transgenic Mice • Splenocytes were resuspended in MACS buffer ([…] MACS-buffer/10^7 cells) • CD4 T cells were isolated using the CD4 T cell isolation kit (Miltenyi) with LS-columns following manufacturer's recommendations CFSE-Labeling of T Cells • Cells were resuspended in PBS with 0.1% BSA at 1×10^7 cells/ml and CFSE-solution was added to final concentration of 2.5 μM CFSE • Incubated for 10 min at 37° C., swung each 2 min • Same volume of FCS added and incubated for 5 min at room temperature • Cells were washed twice with RMPI-10% FCS medium • Cells were counted and resuspended in PBS or medium at desired concentration OT-II Transfer • Day 0: OT-II cells were transferred in PBS (3*10^6. Cells in 100 μl PBS) by retro-orbital injection • Day 1: WT mice got OVA vaccinated (subcut. flank, 10 μg LPS, 2 μg OVA per animal) • 2 & 4 h later compounds were administrated; for oral dosing compound was used as suspension (0.5% methylcellulose in water), for i.v. dosing compound was solubilized in DMSO and diluted with PBS • Day 2: compounds were administrated twice in the morning (with 2 h time interval) • Day 3: Mice were sacrificed & splenocytes were isolated • T cell proliferation & phenotype was determined by flow cytometry • Flow cytometry-Staining (all Abs purchased from eBioscience and used as recommended by the manufacturer): B220-eF450, CD4-PE, CD25PerCPCy5.5, CD69-PC7, TCRVa2-APC, CD8-AF700, CD3-eF780; CFSE; 7-AAD • Acquisition on Beckman-Coulter Gallios, Analysis using Kaluza Software OT-I Transfer to Mice with B16-F10-OVA Tumors • Day 0: 100000 B16-F10-OVA tumor cells were inoculated subcutaneously at the flank of WT-mice • Day 7: OT-I cells were transferred in PBS (3*10^6. […]

B16-F10-OVA tumors = test: Immune modulation of B16-F10-OVA tumor bearing mice: tumor infiltration by immune cells (quantitative RT-PCR); format: in vivo, mouse; conditions: tumor mRNA
Method: as §1

non-stimulated PBMCs = test: Non-stimulated PBMCs: cytokine secretion and signs of T-cell activation; format: cell-based, human
From the text: This is an important finding for compounds that shall selectively act on T cells which have been activated by presence of antigen from pathogens or tumors, but shall not lead to an unwanted general activation of all T cells of a patient.

[2] = tested on: aCD3/aCD28-stimulated human PBMCs; test: Cytokine production in aCD3/aCD28 stimulated human PBMCs; format: cell-based; conditions: PBMC, 18 h
In short: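 Ficoll-isolated human PBMCs at 1e6 cells/mL in X-Vivo15, stimulated with soluble anti-CD3/CD28 (OKT3 and 28.2, 1 μg/mL each) plus compound for 18 h at 37° C. Supernatant cytokines quantified by MSD or HTRF.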

OT-II cells = test: OT-II transfer model, oral administration: antigen-specific T cell proliferation and CD69; format: in vivo, mouse; conditions: LPS & OVA; 10 mg/kg dosed orally
Method: as §1

Structure (SMILES): N[C@H]1CS(=O)(=O)c2cc(F)c(C(=O)NC3CC3(F)F)cc2N(Cc2ccc(Cl)cc2)C1=O (stereo partly shown) [Compound Ex. 1]
- Average CD25+ cells ([1]; CD4 T cells, 10 mg/kg orally): 15.63 % gated
- Average CD69+ cells ([1]; CD4 T cells, 10 mg/kg orally): 13.34 % gated
- Average CD107a+ cells ([1]; CD4 T cells, 10 mg/kg orally): 5.03 % gated
- Average PD1+ cells ([1]; CD4 T cells, 10 mg/kg orally): 10.73 % gated
- Average CD25+ cells ([1]; CD4 T cells, 30 mg/kg orally): 15.91 % gated
- Average CD69+ cells ([1]; CD4 T cells, 30 mg/kg orally): 14.25 % gated
- Average CD107a+ cells ([1]; CD4 T cells, 30 mg/kg orally): 5.43 % gated
- Average PD1+ cells ([1]; CD4 T cells, 30 mg/kg orally): 10.36 % gated
- Average CD25+ cells ([1]; CD8 T cells, 10 mg/kg orally): 1.95 % gated
- Average CD69+ cells ([1]; CD8 T cells, 10 mg/kg orally): 5.25 % gated
- Average CD107a+ cells ([1]; CD8 T cells, 10 mg/kg orally): 2.00 % gated
- Average PD1+ cells ([1]; CD8 T cells, 10 mg/kg orally): 3.12 % gated
- Average CD25+ cells ([1]; CD8 T cells, 30 mg/kg orally): 2.88 % gated
- Average CD69+ cells ([1]; CD8 T cells, 30 mg/kg orally): 5.91 % gated
- Average CD107a+ cells ([1]; CD8 T cells, 30 mg/kg orally): 4.24 % gated
- Average PD1+ cells ([1]; CD8 T cells, 30 mg/kg orally): 6.71 % gated
- Average CD69+ cells ([1]; NK cells, 10 mg/kg orally): 34.43 % gated
- Average CD107a+ cells ([1]; NK cells, 10 mg/kg orally): 12.85 % gated
- Average PD1+ cells ([1]; NK cells, 10 mg/kg orally): 19.91 % gated
- Average CD69+ cells ([1]; NK cells, 30 mg/kg orally): 32.55 % gated
- Average CD107a+ cells ([1]; NK cells, 30 mg/kg orally): 10.98 % gated
- Average PD1+ cells ([1]; NK cells, 30 mg/kg orally): 13.61 % gated
- Average CD4 expression (B16-F10-OVA tumors; 10 mg/kg orally): 7.07 EF1a * 10^4
- Average CD8 expression (B16-F10-OVA tumors; 10 mg/kg orally): 6.28 EF1a * 10^4
- Average IFN-g expression (B16-F10-OVA tumors; 10 mg/kg orally): 0.75 EF1a * 10^4
- Average IL-2 expression (B16-F10-OVA tumors; 10 mg/kg orally): 0.043 EF1a * 10^4
- Average IL-12 expression (B16-F10-OVA tumors; 10 mg/kg orally): 0.074 EF1a * 10^4
- Average IL-23 expression (B16-F10-OVA tumors; 10 mg/kg orally): 0.480 EF1a * 10^4
- Average Ratio Eomes/Foxp3 (B16-F10-OVA tumors; 10 mg/kg orally): 0.66
- Average Ratio Rorgc/Foxp3 (B16-F10-OVA tumors; 10 mg/kg orally): 5.38
- Average Ratio T-bet/Foxp3 (B16-F10-OVA tumors; 10 mg/kg orally): 8.35
- Average TNF-a expression (B16-F10-OVA tumors; 10 mg/kg orally): 9.96 EF1a * 10^4
- Average CD4 expression (B16-F10-OVA tumors; 30 mg/kg orally): 9.65 EF1a * 10^4
- Average CD8 expression (B16-F10-OVA tumors; 30 mg/kg orally): 10.72 EF1a * 10^4
- Average IFN-g expression (B16-F10-OVA tumors; 30 mg/kg orally): 1.23 EF1a * 10^4
- Average IL-2 expression (B16-F10-OVA tumors; 30 mg/kg orally): 0.085 EF1a * 10^4
- Average IL-12 expression (B16-F10-OVA tumors; 30 mg/kg orally): 0.120 EF1a * 10^4
- Average IL-23 expression (B16-F10-OVA tumors; 30 mg/kg orally): 0.611 EF1a * 10^4
- Average Ratio Eomes/Foxp3 (B16-F10-OVA tumors; 30 mg/kg orally): 0.64
- Average Ratio Rorgc/Foxp3 (B16-F10-OVA tumors; 30 mg/kg orally): 6.17
- Average Ratio T-bet/Foxp3 (B16-F10-OVA tumors; 30 mg/kg orally): 9.59
- Average TNF-a expression (B16-F10-OVA tumors; 30 mg/kg orally): 14.97 EF1a * 10^4

Structure (SMILES): CC(=O)NCCCCCOc1ccc(CNC(=O)c2ccc3c(c2)N(Cc2ccc(Cl)cc2)C(=O)[C@@H](N)CS3(=O)=O)cc1.Cl [Example 78, (3R)-3-amino-5-[(4-chlorophenyl)methyl]-N-({4-[(5-acetamidopentyl)oxy]phenyl}-methyl)-1,1,4-trioxo-2,3,4,5-tetrahydro-1λ^6,5-benzothiazepine-7-carboxamide hydrochloride]
- cytokine secretion or other signs of T-cell activation (non-stimulated PBMCs): did not enhance cytokine secretion or other signs of T-cell activation
- pEC50 ([2]; enhancement of IFN-γ production, read-out: Activity Class IFN-γ): > 5.80
- pEC50 ([2]; enhancement of IL-2 production, read-out: Activity Class IL-2): > 5.80

Structure (SMILES): N[C@H]1CS(=O)(=O)c2cc(F)c(C(=O)NC3CC3(F)F)cc2N(Cc2ccc(Cl)cc2)C1=O (stereo partly shown) [compound ex. 1]
- CD69+ cells, B cells of recipient animal (OT-II cells): 2.10 % gated
- CD69+ cells, CD8 T cells of recipient animal (OT-II cells): 3.48 % gated
- CD69+ cells, WT CD4 T cells of recipient animal (OT-II cells): 7.00 % gated
- CD69+ cells, transferred OT-II cells (OT-II cells): 46.92 % gated
